Tests used:
[1] = system: AVEFA; experiment: Pre-emergence action at 320 g/ha against AVEFA; format: in vivo; details: visual scoring after about 3 weeks vs untreated controls
Method in brief: (§1)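 Pre-emergence soil-surface spray: WP or EC formulation, aqueous, 0.5% additive, 600 l/ha water volume. Greenhouse growth about 3 weeks; visual percent effect relative to untreated pots.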

[2] = system: SETVI; experiment: Pre-emergence action against SETVI, 1280 g/ha; format: in vivo, Setaria viridis; details: visual scoring after about 3 weeks vs untreated controls, 100% = plants have died, 0% = like control plants
Method in brief: (§2)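 Mono- and dicot weed seeds sown in sandy loam were treated on the covering soil surface with WP or EC formulations plus 0.5% additive at 600 L water/ha. Pots stayed in a greenhouse; damage was scored visually after ~3 weeks as percent versus untreated controls (100% = dead).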

[3] = system: PHBPU; experiment: Pre-emergence action at 320 g/ha against PHBPU; format: in vivo; details: visual scoring after about 3 weeks vs untreated controls
Excerpt: b) Seeds of monocotyledonous and dicotyledonous weed plants and crop plants are placed in plastic or organic planting pots and covered with soil. The compounds of the invention, formulated in the form of wettable powders (WP) or as emulsion concentrates (EC), are then applied onto the surface of the covering soil as aqueous suspension or emulsion with addition of 0.5% additive at a water application rate of 600 l/ha (converted). After the treatment, the pots are placed in a greenhouse and kept under good growth conditions for the trial plants. After about 3 weeks, the effect of the preparations is scored visually in comparison with untreated controls as percentages. For example, 100% activity=the plants have died, 0% activity=like control plants. Tables 13 to 26 below show the effects of selected compounds of the general formula (I) on various harmful plants and at an application rate corresponding to 320 g/ha, which were obtained by the experimental procedure mentioned above.

[4] = system: POAAN; experiment: Pre-emergence action against POAAN, 1280 g/ha; format: in vivo, Poa annua; details: visual scoring after about 3 weeks vs untreated controls, 100% = plants have died, 0% = like control plants
Method in brief: as §2

[5] = system: AMARE; experiment: Post-emergence action against AMARE, 1.28 kg/ha; format: in vivo, Amaranthus retroflexus; details: dosage 1280 g/ha, visual rating about 3 weeks after treatment vs untreated controls (100% = plants died)
Method in brief: (§3)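 Post-emergence greenhouse spray, one-leaf stage (2–3 wk after sowing), sandy loam. WP/EC, aqueous + 0.5% additive, 600 L/ha water. Visual % activity vs untreated, ~3 wk after treatment; 100% = plants dead.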

[6] = system: MATIN; experiment: Pre-emergence action at 320 g/ha against MATIN; format: in vivo, Tripleurospermum inodorum (Matricaria inodora); details: visual scoring after about 3 weeks vs untreated controls
Method in brief: as §1

[7] = system: MATIN; experiment: Pre-emergence action against MATIN, 1280 g/ha; format: in vivo, Tripleurospermum inodorum (Matricaria inodora); details: scored visually after about 3 weeks vs untreated controls (100% = plants have died)
Method in brief: as §2

[8] = system: VERPE; experiment: Post-emergence action against VERPE, 1.28 kg/ha; format: in vivo, Veronica persica; details: dosage 1280 g/ha, visual rating about 3 weeks after treatment vs untreated controls (100% = plants died)
Method in brief: as §3

[9] = system: VERPE; experiment: Pre-emergence action against VERPE, 1280 g/ha; format: in vivo, Veronica persica; details: scored visually after about 3 weeks vs untreated controls (100% = plants have died)
Method in brief: as §2

[10] = system: ALOMY; experiment: Post-emergence action against ALOMY, 1.28 kg/ha; format: in vivo, Alopecurus myosuroides; details: dosage 1280 g/ha, visual rating about 3 weeks after treatment vs untreated controls
Method in brief: as §3

[11] = system: LOLRI; experiment: Pre-emergence action at 320 g/ha against LOLRI; format: in vivo, Lolium rigidum; details: visual scoring after about 3 weeks vs untreated controls
Method in brief: as §1

[12] = system: MATIN; experiment: Post-emergence action against MATIN, 1.28 kg/ha; format: in vivo, Tripleurospermum inodorum (Matricaria inodora); details: dosage 1280 g/ha, visual rating about 3 weeks after treatment vs untreated controls (100% = plants died)
Method in brief: as §3

[13] = system: ABUTH; experiment: Pre-emergence action against ABUTH, 1280 g/ha; format: in vivo, Abutilon theophrasti; details: scored visually after about 3 weeks vs untreated controls (100% = plants have died)
Method in brief: as §2

[14] = system: STEME; experiment: Post-emergence action against STEME, 1.28 kg/ha; format: in vivo, Stellaria media; details: dosage 1280 g/ha, visual rating about 3 weeks after treatment vs untreated controls (100% = plants died)
Method in brief: as §3

[15] = system: SETVI; experiment: Post-emergence action against SETVI, 1.28 kg/ha; format: in vivo, Setaria viridis; details: dosage 1280 g/ha, visual rating about 3 weeks after treatment vs untreated controls
Method in brief: as §3

[16] = system: ECHGC; experiment: Pre-emergence action at 320 g/ha against ECHGC; format: in vivo, Echinochloa crus-galli; details: visual scoring after about 3 weeks vs untreated controls
Method in brief: as §1

[17] = system: AMARE; experiment: Pre-emergence action against AMARE, 1280 g/ha; format: in vivo, Amaranthus retroflexus; details: scored visually after about 3 weeks vs untreated controls (100% = plants have died)
Method in brief: as §2

[18] = system: LOLRI; experiment: Pre-emergence action against LOLRI, 1280 g/ha; format: in vivo, Lolium rigidum; details: visual scoring after about 3 weeks vs untreated controls, 100% = plants have died, 0% = like control plants
Method in brief: as §2

[19] = system: DIGSA; experiment: Pre-emergence action against DIGSA, 1280 g/ha; format: in vivo, Digitaria sanguinalis; details: visual scoring after about 3 weeks vs untreated controls, 100% = plants have died, 0% = like control plants
Method in brief: as §2

[20] = system: SETVI; experiment: Pre-emergence action at 320 g/ha against SETVI; format: in vivo, Setaria viridis; details: visual scoring after about 3 weeks vs untreated controls
Method in brief: as §1

[21] = system: KCHSC; experiment: Pre-emergence action against KCHSC, 1280 g/ha; format: in vivo, Bassia scoparia; details: scored visually after about 3 weeks vs untreated controls (100% = plants have died)
Method in brief: as §2

[22] = system: ECHCG; experiment: Pre-emergence action against ECHCG, 1280 g/ha; format: in vivo, Echinochloa crus-galli; details: visual scoring after about 3 weeks vs untreated controls, 100% = plants have died, 0% = like control plants
Method in brief: as §2

[23] = system: ALOMY; experiment: Pre-emergence action at 320 g/ha against ALOMY; format: in vivo, Alopecurus myosuroides; details: scored visually after about 3 weeks vs untreated controls (100% = plants have died)
Method in brief: as §1

[24] = system: AMARE; experiment: Pre-emergence action at 320 g/ha against AMARE; format: in vivo, Amaranthus retroflexus; details: visual scoring after about 3 weeks vs untreated controls
Method in brief: as §1

[25] = system: VERPE; experiment: Pre-emergence action at 320 g/ha against VERPE; format: in vivo, Veronica persica; details: visual scoring after about 3 weeks vs untreated controls
Method in brief: as §1

[26] = system: ABUTH; experiment: Post-emergence action against ABUTH, 1.28 kg/ha; format: in vivo, Abutilon theophrasti; details: dosage 1280 g/ha, visual rating about 3 weeks after treatment vs untreated controls (100% = plants died)
Method in brief: as §3

[27] = system: LOLRI; experiment: Post-emergence action against LOLRI, 1.28 kg/ha; format: in vivo, Lolium rigidum; details: dosage 1280 g/ha, visual rating about 3 weeks after treatment vs untreated controls
Method in brief: as §3

[28] = system: POLCO; experiment: Pre-emergence action at 320 g/ha against POLCO; format: in vivo, Fallopia convolvulus (Polygonum convolvulus); details: visual scoring after about 3 weeks vs untreated controls
Method in brief: as §1

[29] = system: DIGSA; experiment: Pre-emergence action at 320 g/ha against DIGSA; format: in vivo, Digitaria sanguinalis; details: visual scoring after about 3 weeks vs untreated controls
Method in brief: as §1

[30] = system: STEME; experiment: Pre-emergence action against STEME, 1280 g/ha; format: in vivo, Stellaria media; details: scored visually after about 3 weeks vs untreated controls (100% = plants have died)
Method in brief: as §2

[31] = system: POAAN; experiment: Post-emergence action against POAAN, 1.28 kg/ha; format: in vivo, Poa annua; details: dosage 1280 g/ha, visual rating about 3 weeks after treatment vs untreated controls
Method in brief: as §3

[32] = system: ECHCG; experiment: Post-emergence action against ECHCG, 1.28 kg/ha; format: in vivo, Echinochloa crus-galli; details: dosage 1280 g/ha, visual rating about 3 weeks after treatment vs untreated controls
Method in brief: as §3

[33] = system: DIGSA; experiment: Post-emergence action against DIGSA, 1.28 kg/ha; format: in vivo, Digitaria sanguinalis; details: dosage 1280 g/ha, visual rating about 3 weeks after treatment vs untreated controls
Method in brief: as §3

[34] = system: ALOMY; experiment: Pre-emergence action against ALOMY, 1280 g/ha; format: in vivo, Alopecurus myosuroides; details: visual scoring after about 3 weeks vs untreated controls, 100% = plants have died, 0% = like control plants
Method in brief: as §2

[35] = system: VIOTR; experiment: Pre-emergence action at 320 g/ha against VIOTR; format: in vivo, Viola tricolor; details: dosage 320 g/ha
Method in brief: as §1

[36] = system: KCHSC; experiment: Post-emergence action against KCHSC, 1.28 kg/ha; format: in vivo, Bassia scoparia; details: dosage 1280 g/ha, visual rating about 3 weeks after treatment vs untreated controls (100% = plants died)
Method in brief: as §3

N#CCCOC(=O)COc1nn(-c2ccccc2F)c(-c2ccc(F)nc2)c1Br [VII-110]
80%: Pre-emergence action against AVEFA in % [1]
100%: Pre-emergence action against SETVI [2] | Pre-emergence action against POAAN [4] | Pre-emergence action against MATIN in % [6] | Pre-emergence action against MATIN [7] | Post-emergence action against VERPE [8] | Pre-emergence action against VERPE [9] | Post-emergence action against ALOMY [10] | Pre-emergence action against LOLRI in % [11] | Post-emergence action against MATIN [12] | Post-emergence action against STEME [14] | Pre-emergence action against ECHGC in % [16] | Pre-emergence action against AMARE [17] | Pre-emergence action against LOLRI [18] | Pre-emergence action against DIGSA [19] | Pre-emergence action against SETVI in % [20] | Pre-emergence action against ECHCG [22] | Pre-emergence action at 320 g/ha against ALOMY in % [23] | Pre-emergence action against AMARE in % [24] | Pre-emergence action against VERPE in % [25] | Post-emergence action against LOLRI [27] | Pre-emergence action against POLCO in % [28] | Pre-emergence action against DIGSA in % [29] | Pre-emergence action against STEME [30] | Post-emergence action against POAAN [31] | Post-emergence action against ECHCG [32] | Post-emergence action against DIGSA [33] | Pre-emergence action against ALOMY [34] | Pre-emergence action against VIOTR in % [35]
90%: Pre-emergence action against PHBPU in % [3] | Post-emergence action against AMARE [5] | Pre-emergence action against ABUTH [13] | Post-emergence action against SETVI [15] | Pre-emergence action against KCHSC [21] | Post-emergence action against ABUTH [26]

CSCCOC(=O)COc1nn(-c2ccccc2F)c(-c2ccc(F)nc2)c1Br [VII-124]
90%: Pre-emergence action against AVEFA in % [1] | Pre-emergence action against PHBPU in % [3] | Post-emergence action against AMARE [5] | Pre-emergence action against ABUTH [13] | Post-emergence action against SETVI [15] | Post-emergence action against KCHSC [36] | Pre-emergence action against KCHSC [21] | Post-emergence action against ABUTH [26]
100%: Pre-emergence action against SETVI [2] | Pre-emergence action against POAAN [4] | Pre-emergence action against MATIN in % [6] | Pre-emergence action against MATIN [7] | Post-emergence action against VERPE [8] | Pre-emergence action against VERPE [9] | Post-emergence action against ALOMY [10] | Pre-emergence action against LOLRI in % [11] | Post-emergence action against MATIN [12] | Post-emergence action against STEME [14] | Pre-emergence action against ECHGC in % [16] | Pre-emergence action against AMARE [17] | Pre-emergence action against LOLRI [18] | Pre-emergence action against DIGSA [19] | Pre-emergence action against SETVI in % [20] | Pre-emergence action against ECHCG [22] | Pre-emergence action at 320 g/ha against ALOMY in % [23] | Pre-emergence action against AMARE in % [24] | Pre-emergence action against VERPE in % [25] | Post-emergence action against LOLRI [27] | Pre-emergence action against POLCO in % [28] | Pre-emergence action against DIGSA in % [29] | Pre-emergence action against STEME [30] | Post-emergence action against POAAN [31] | Post-emergence action against ECHCG [32] | Post-emergence action against DIGSA [33] | Pre-emergence action against ALOMY [34] | Pre-emergence action against VIOTR in % [35]
